# Key:
# [1] = target: Fibroblast growth factor receptor 1 (Homo sapiens, UniProt P11362); test: Inhibition of human recombinant FGFR1
# [2] = target: Vascular endothelial growth factor receptor 2 (Homo sapiens, UniProt P35968)
# [3] = target: Platelet-derived growth factor receptor beta (Homo sapiens, UniProt P09619); test: Inhibition of human recombinant PDGFRbeta
# [4] = Inhibition of VEGF-mediated proliferation of HMVEC after 72 hrs; format: functional, cell-based; settings: Homo sapiens
# [5] = AUC in mouse at 20 mg/kg, po; format: ADME, organism-based; design: dose 20 mg/kg, route oral; settings: plasma
# DU-145 [6] = test: Antitumor activity against PDGFRbeta expressing human DU145 cells xenografted nude mouse assessed as tumor growth inhibition at 30 mg/kg/day, po; format: functional; settings: read-out: TGI
# DU-145 [7] = test: Antitumor activity against VEGFR expressing human DU145 cells xenografted nude mouse assessed as tumor growth inhibition at 10 mg/kg/day, po; format: functional; settings: read-out: TGI
# MV4-11 [8] = test: Antitumor activity against FLT3 ITD expressing human MV4-11 cells xenografted SCID-NOD mouse assessed as tumor growth inhibition at 1 mg/kg/day, po; format: functional; settings: read-out: TGI
# MV4-11 [9] = test: Antitumor activity against human MV4-11 cells xenografted SCID-NOD mouse; format: functional
# Mus musculus [10] = species on record: Mus musculus; test: Antiangiogenic activity in BDF1 mouse Matrigel model assessed as inhibition of bFGF-mediated angiogenesis; format: functional
# [11] = Antitumor activity against VEGFR expressing human KM12L4A cells xenografted nude mouse assessed as tumor growth inhibition at 10 mg/kg/day, po; format: functional; settings: read-out: TGI
# MV4-11 [12] = test: Antitumor activity against PDGFRbeta expressing human MV4-11 cells xenografted SCID-NOD mouse assessed as tumor growth inhibition at 30 mg/kg/day, po; format: functional; settings: read-out: TGI
# [13] = Antitumor activity against human KM12L4A cells xenografted nude mouse; format: functional
# DU-145 [14] = test: Antitumor activity against FGFR expressing human DU145 cells xenografted nude mouse assessed as tumor growth inhibition at 100 mg/kg/day, po; format: functional; settings: read-out: TGI
# DU-145 [15] = test: Antitumor activity against human DU145 cells xenografted nude mouse; format: functional
# [16] = Oral bioavailability in rat at 20 mg/kg; format: ADME, organism-based; settings: in vivo
# [17] = Volume of distribution at steady state in mouse at 5 mg/kg, iv; format: ADME, organism-based; design: dose 5 mg/kg, route intravenous; settings: in vivo, read-out: Vdss
# [18] = Half life in rat at 5 mg/kg, iv; format: ADME, organism-based; design: dose 5 mg/kg, route intravenous; settings: in vivo
# [19] = Oral bioavailability in mouse at 20 mg/kg; format: ADME, organism-based; settings: in vivo
# [20] = Antitumor activity against PDGFRbeta expressing human KM12L4A cells xenografted nude mouse assessed as tumor growth inhibition at 100 mg/kg/day, po; format: functional; settings: read-out: TGI
# [21] = AUC in rat at 20 mg/kg, po; format: ADME, organism-based; design: dose 20 mg/kg, route oral; settings: plasma
# MV4-11 [22] = test: Antitumor activity against cKit expressing human MV4-11 cells xenografted SCID-NOD mouse assessed as tumor growth inhibition at 10 mg/kg/day, po; format: functional; settings: read-out: TGI
# Mus musculus [23] = test: Antiangiogenic activity in BDF1 mouse Matrigel model assessed as inhibition of bFGF-mediated angiogenesis at 3 mg/kg, po for 8 days by colorimetric assay; format: functional; design: scale not given: the % may be the effect or the level left
# [24] = Clearance in rat at 5 mg/kg, iv; format: ADME, organism-based; design: dose 5 mg/kg, route intravenous; settings: in vivo
# MV4-11 [25] = test: Antitumor activity against VEGFR expressing human MV4-11 cells xenografted SCID-NOD mouse assessed as tumor growth inhibition at 5 mg/kg/day, po; format: functional; settings: read-out: TGI
# [26] = Cmax in mouse at 20 mg/kg, po; format: ADME, organism-based; design: dose 20 mg/kg, route oral; settings: in vivo
# [27] = Clearance in mouse at 5 mg/kg, iv; format: ADME, organism-based; design: dose 5 mg/kg, route intravenous; settings: in vivo
# [28] = Volume of distribution at steady state in rat at 5 mg/kg, iv; format: ADME, organism-based; design: dose 5 mg/kg, route intravenous; settings: in vivo, read-out: Vdss
# [29] = Antitumor activity against PDGFRbeta expressing human KM12L4A cells xenografted nude mouse assessed as tumor growth inhibition at 30 mg/kg/day, po; format: functional; settings: read-out: TGI
# [30] = Half life in mouse at 5 mg/kg, iv; format: ADME, organism-based; design: dose 5 mg/kg, route intravenous; settings: in vivo
# [31] = Cmax in rat at 20 mg/kg, po; format: ADME, organism-based; design: dose 20 mg/kg, route oral; settings: in vivo
# Chain of Vascular endothelial growth factor receptor 2 (P35968 whole entry): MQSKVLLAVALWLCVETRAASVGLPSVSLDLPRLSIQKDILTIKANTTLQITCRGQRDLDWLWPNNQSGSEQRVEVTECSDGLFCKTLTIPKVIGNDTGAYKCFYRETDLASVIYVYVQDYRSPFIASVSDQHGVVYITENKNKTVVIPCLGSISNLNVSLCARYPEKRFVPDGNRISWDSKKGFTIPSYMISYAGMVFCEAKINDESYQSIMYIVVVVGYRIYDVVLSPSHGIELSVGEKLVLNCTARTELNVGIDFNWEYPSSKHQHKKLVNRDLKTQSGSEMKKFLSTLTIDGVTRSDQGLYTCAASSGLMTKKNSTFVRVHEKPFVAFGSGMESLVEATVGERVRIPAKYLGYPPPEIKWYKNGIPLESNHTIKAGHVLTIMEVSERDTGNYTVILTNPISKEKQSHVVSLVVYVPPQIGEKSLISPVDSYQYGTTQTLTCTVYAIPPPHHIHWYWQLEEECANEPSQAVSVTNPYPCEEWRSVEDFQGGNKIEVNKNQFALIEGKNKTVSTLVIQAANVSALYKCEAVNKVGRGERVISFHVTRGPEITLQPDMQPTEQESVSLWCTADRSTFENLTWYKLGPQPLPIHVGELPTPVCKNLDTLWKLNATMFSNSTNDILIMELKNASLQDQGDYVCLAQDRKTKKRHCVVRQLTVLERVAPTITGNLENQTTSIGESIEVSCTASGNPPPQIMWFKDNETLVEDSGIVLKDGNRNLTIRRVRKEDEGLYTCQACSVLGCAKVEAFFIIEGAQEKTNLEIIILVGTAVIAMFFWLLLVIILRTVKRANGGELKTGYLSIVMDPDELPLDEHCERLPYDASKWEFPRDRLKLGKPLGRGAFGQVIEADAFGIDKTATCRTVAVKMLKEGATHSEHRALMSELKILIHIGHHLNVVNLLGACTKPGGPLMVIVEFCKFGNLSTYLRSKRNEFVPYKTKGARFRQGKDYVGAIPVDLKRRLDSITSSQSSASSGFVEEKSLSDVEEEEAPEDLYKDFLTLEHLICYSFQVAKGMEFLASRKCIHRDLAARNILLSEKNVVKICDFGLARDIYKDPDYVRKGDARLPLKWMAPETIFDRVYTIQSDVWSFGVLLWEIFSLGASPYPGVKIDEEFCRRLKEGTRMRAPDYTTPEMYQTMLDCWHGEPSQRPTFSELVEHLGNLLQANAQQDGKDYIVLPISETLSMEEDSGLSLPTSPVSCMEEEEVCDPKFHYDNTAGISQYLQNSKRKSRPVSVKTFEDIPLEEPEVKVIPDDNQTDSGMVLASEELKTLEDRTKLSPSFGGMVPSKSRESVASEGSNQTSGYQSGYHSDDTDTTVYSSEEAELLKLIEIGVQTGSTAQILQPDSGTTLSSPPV
# Chain of Fibroblast growth factor receptor 1 (P11362 whole entry): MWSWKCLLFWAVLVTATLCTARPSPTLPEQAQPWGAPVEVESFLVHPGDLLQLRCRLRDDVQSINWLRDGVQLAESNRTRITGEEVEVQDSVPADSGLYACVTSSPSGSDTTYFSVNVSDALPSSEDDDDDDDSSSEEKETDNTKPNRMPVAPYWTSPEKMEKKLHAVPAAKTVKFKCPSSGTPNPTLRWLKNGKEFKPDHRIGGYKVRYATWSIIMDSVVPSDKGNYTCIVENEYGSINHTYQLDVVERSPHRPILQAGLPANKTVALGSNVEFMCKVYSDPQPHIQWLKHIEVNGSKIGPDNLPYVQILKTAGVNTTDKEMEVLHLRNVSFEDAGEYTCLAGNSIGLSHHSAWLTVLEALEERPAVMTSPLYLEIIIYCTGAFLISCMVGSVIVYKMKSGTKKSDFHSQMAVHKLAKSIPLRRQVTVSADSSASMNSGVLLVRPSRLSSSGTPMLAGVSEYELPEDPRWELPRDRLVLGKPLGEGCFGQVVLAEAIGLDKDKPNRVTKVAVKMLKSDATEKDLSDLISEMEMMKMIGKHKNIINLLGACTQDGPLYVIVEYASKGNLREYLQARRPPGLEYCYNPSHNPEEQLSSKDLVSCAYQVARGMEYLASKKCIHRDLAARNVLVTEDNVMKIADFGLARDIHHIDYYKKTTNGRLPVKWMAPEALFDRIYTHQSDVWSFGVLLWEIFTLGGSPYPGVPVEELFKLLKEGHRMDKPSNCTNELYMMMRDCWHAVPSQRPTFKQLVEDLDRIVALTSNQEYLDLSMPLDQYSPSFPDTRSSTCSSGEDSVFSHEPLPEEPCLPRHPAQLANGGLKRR
# Chain of Platelet-derived growth factor receptor beta (P09619 whole entry): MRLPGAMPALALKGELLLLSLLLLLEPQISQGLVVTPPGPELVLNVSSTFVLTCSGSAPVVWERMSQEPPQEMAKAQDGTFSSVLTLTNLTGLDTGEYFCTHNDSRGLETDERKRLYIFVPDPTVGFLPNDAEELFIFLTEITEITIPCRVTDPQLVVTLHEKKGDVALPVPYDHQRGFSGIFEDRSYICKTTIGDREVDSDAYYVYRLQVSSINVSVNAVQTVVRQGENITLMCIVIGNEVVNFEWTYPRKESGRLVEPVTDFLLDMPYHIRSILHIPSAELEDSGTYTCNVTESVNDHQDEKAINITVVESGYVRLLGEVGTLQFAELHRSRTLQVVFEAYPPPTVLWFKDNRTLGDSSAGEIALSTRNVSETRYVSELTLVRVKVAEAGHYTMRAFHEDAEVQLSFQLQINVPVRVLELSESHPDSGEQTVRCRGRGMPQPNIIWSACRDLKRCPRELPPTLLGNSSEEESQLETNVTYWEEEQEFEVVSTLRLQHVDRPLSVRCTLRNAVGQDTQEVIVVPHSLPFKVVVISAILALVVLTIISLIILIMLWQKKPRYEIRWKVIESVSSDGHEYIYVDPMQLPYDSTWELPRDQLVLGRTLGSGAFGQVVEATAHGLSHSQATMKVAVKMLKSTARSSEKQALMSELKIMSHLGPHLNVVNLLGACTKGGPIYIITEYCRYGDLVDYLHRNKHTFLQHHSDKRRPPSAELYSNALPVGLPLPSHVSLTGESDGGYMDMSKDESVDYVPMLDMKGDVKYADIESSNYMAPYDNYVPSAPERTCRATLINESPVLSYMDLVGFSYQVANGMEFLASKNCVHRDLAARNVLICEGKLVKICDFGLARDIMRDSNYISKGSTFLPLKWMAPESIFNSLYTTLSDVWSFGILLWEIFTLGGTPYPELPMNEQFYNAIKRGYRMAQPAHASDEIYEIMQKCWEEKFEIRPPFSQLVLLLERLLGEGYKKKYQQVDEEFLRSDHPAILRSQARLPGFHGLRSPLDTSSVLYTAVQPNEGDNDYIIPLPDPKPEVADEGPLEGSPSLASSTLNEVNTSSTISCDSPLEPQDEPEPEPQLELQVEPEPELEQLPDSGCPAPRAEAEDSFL
smiles,measurement,setting,value
CNc1cccc2[nH]c(=O)c(-c3nc4ccc(N5CCN(C)CC5)cc4[nH]3)c(N)c12,IC50,[1],0.015 µM
same,IC50,[2],0.053 µM
same,IC50,[3],0.002 µM
same,EC50,[4],0.017 µM
CN1CCN(c2ccc3nc(-c4c(N)c5cc(F)ccc5[nH]c4=O)[nH]c3c2)CC1,IC50,[1],0.04 µM
same,IC50,[2],0.078 µM
same,IC50,[3],0.001 µM
same,EC50,[4],0.01 µM
CN1CCN(c2ccc3nc(-c4c(N)c5cc(N)ccc5[nH]c4=O)[nH]c3c2)CC1,IC50,[1],0.007 µM
same,IC50,[2],0.019 µM
same,IC50,[3],0.007 µM
same,EC50,[4],0.017 µM
CN1CCN(c2ccc3nc(-c4c(N)c5ccc(F)cc5[nH]c4=O)[nH]c3c2)CC1,IC50,[1],0.003 µM
same,IC50,[2],0.014 µM
same,IC50,[3],0.0004 µM
same,EC50,[4],0.034 µM
Cc1ccc2nc(-c3c(N)c4ccccc4[nH]c3=O)[nH]c2c1,IC50,[1],0.08 µM
same,IC50,[2],0.22 µM
same,IC50,[3],0.03 µM
same,EC50,[4],0.064 µM
Cc1cc2nc(-c3c(N)c4ccccc4[nH]c3=O)[nH]c2cc1C,IC50,[1],0.07 µM
same,IC50,[2],0.21 µM
same,IC50,[3],0.012 µM
same,EC50,[4],0.15 µM
CN1CCN(C(=O)c2ccc3[nH]c(-c4c(N)c5ccccc5[nH]c4=O)nc3c2)CC1,IC50,[1],0.01 µM
same,IC50,[2],0.026 µM
same,IC50,[3],0.0009 µM
same,EC50,[4],0.045 µM
CN1CCN(c2ccc3[nH]c(-c4c(N)c5c(F)cc(F)cc5[nH]c4=O)nc3c2)CC1,IC50,[1],0.03 µM
same,IC50,[2],0.13 µM
same,IC50,[3],0.005 µM
same,EC50,[4],0.08 µM
CN1CCN(c2ccc3nc(-c4c(N)c5cc(F)c(N(C)C)cc5[nH]c4=O)[nH]c3c2)CC1,IC50,[1],1.8 µM
same,IC50,[2],5.3 µM
same,IC50,[3],0.03 µM
same,EC50,[4],3.3 µM
CN1CCN(c2cccc3[nH]c(=O)c(-c4nc5ccccc5[nH]4)c(N)c23)CC1,IC50,[1],0.001 µM
same,IC50,[2],0.017 µM
same,IC50,[3],0.0003 µM
same,EC50,[4],0.34 µM
CNc1c(-c2nc3ccccc3[nH]2)c(=O)[nH]c2ccccc12,IC50,[1],0.12 µM
same,IC50,[2],0.22 µM
same,IC50,[3],0.03 µM
same,EC50,[4],0.28 µM
CN1CCN(c2ccc3[nH]c(-c4c(N)c5cc(F)c(F)cc5[nH]c4=O)nc3c2)CC1,IC50,[1],0.11 µM
same,IC50,[2],0.19 µM
same,IC50,[3],0.003 µM
same,EC50,[4],0.48 µM
CN1CCCN(c2ccc3[nH]c(-c4c(N)c5ccccc5[nH]c4=O)nc3c2)CC1,IC50,[1],0.02 µM
same,IC50,[2],0.066 µM
same,IC50,[3],0.005 µM
same,EC50,[4],0.025 µM
Cn1c(=O)c(-c2nc3ccccc3[nH]2)c(O)c2ccccc21,IC50,[1],> 25 µM
same,IC50,[2],5.8 µM
same,IC50,[3],19 µM
same,EC50,[4],4.6 µM
CN1CCN(c2ccc3[nH]c(-c4c(N)c5cc(Cl)ccc5[nH]c4=O)nc3c2)CC1,IC50,[1],0.024 µM
same,IC50,[2],0.043 µM
same,IC50,[3],0.008 µM
same,EC50,[4],0.039 µM
O=c1[nH]c2ccccc2c(NCC2CCNCC2)c1-c1nc2ccccc2[nH]1,IC50,[1],0.55 µM
same,IC50,[2],0.94 µM
same,IC50,[3],0.0009 µM
same,EC50,[4],0.1 µM
CN1CCN(c2ccc3nc(-c4c(N)c5cc(C(=O)NCc6ccccc6)ccc5[nH]c4=O)[nH]c3c2)CC1,IC50,[1],0.01 µM
same,IC50,[2],0.05 µM
same,IC50,[3],0.0001 µM
same,EC50,[4],0.12 µM
Nc1c(-c2nc3ccc(OCCN4CCOCC4)cc3[nH]2)c(=O)[nH]c2ccccc12,IC50,[1],0.02 µM
same,IC50,[2],0.066 µM
same,IC50,[3],0.005 µM
same,EC50,[4],0.037 µM
CN1CCN(c2ccc3[nH]c(-c4c(N)c5cccc(F)c5[nH]c4=O)nc3c2)CC1,IC50,[1],0.19 µM
same,IC50,[2],0.56 µM
same,IC50,[3],0.014 µM
same,EC50,[4],0.42 µM
CN1CCN(c2ccc3nc(-c4c(N)c5c(F)cccc5[nH]c4=O)[nH]c3c2)CC1 [DOVITINIB],AUC,[5],6000 ng·h/mL
same,inhibition in vivo at 30 mg/kg/day,DU-145 [6],70%
same,inhibition in vivo at 10 mg/kg/day,DU-145 [7],39%
same,inhibition in vivo at 1 mg/kg/day,MV4-11 [8],23%
same,ED50,MV4-11 [9],3 mg/kg
same,minimal effective dose,MV4-11 [9]; read-out: MED,1 mg/kg
same,ED50,Mus musculus [10],3 mg/kg
same,inhibition in vivo at 10 mg/kg/day,[11],44%
same,inhibition in vivo at 30 mg/kg/day,MV4-11 [12],96%
same,ED50,[13],17 mg/kg
same,minimal effective dose,[13]; read-out: MED,10 mg/kg
same,inhibition in vivo at 100 mg/kg/day,DU-145 [14],86%
same,ED50,DU-145 [15],23 mg/kg
same,minimal effective dose,DU-145 [15]; read-out: MED,30 mg/kg
same,bioavailability,[16],73%
same,Vd,[17],12 L/kg
same,half-life,[18],3.5 h
same,bioavailability,[19],77%
same,inhibition in vivo at 100 mg/kg/day,[20],95%
same,AUC,[21],5670 ng·h/mL
same,inhibition in vivo at 10 mg/kg/day,MV4-11 [22],92%
same,Activity,Mus musculus [23],54%
same,clearance,[24],43 mL/min/kg
same,inhibition in vivo at 5 mg/kg/day,MV4-11 [25],65%
same,Cmax,[26],670 ng/mL
same,clearance,[27],42 mL/min/kg
same,Vd,[28],13 L/kg
same,inhibition in vivo at 30 mg/kg/day,[29],55%
same,half-life,[30],2.7 h
same,EC50,[4],0.013 µM
same,Cmax,[31],480 ng/mL
